Active and inactive are the calls of the source.
Columns and labels:
Type in all cases: functional
[1] = target: Serine/threonine-protein kinase pim-1 (Homo sapiens, UniProt P11309)
[2] = target: Cell division cycle 7-related protein kinase (Homo sapiens, UniProt O00311);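 note: value obtained from a kinome-wide kinase panel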
[3] = target: Homeodomain-interacting protein kinase 2 (Homo sapiens, UniProt Q9H2X6);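 note: measured within a kinome-wide kinase profiling panel, HIPK2 being one panel member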
[4] = target: T1, Interleukin-1 receptor-associated kinase 4 (Homo sapiens, UniProt Q9NWZ3)
T1 sequence (Q9NWZ3 whole entry): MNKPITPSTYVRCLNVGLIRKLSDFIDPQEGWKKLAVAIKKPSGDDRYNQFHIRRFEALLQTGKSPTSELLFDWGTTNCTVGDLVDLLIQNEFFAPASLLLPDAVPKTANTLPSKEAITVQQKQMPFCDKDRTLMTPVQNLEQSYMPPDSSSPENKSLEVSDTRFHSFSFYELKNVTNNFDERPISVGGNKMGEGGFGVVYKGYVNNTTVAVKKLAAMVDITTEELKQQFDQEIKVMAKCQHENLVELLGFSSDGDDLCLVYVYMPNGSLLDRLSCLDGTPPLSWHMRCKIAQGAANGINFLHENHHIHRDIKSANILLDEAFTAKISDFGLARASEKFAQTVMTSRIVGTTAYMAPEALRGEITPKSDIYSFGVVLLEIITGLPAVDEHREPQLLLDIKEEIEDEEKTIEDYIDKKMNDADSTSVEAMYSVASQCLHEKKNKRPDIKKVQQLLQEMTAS

[5] = target: Cyclin-dependent kinase 7 (Homo sapiens, UniProt P50613);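 note: value comes from a kinome-wide kinase profiling panel in which CDK7 is one member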
[6] = target: Glycogen synthase kinase-3 beta (Homo sapiens, UniProt P49841);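 note: value comes from a broad kinome profiling panel, with GSK3B as the panel member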
[7] = target: Cyclin-dependent kinase 9 (Homo sapiens, UniProt P50750);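 note: value from the CDK9 entry of a kinome-spanning kinase panel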
[8] = target: cAMP-dependent protein kinase catalytic subunit alpha (Homo sapiens, UniProt P17612)
[9] = target: ALK tyrosine kinase receptor (Homo sapiens, UniProt Q9UM73);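 note: ALK tested as one member of a kinase panel screen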
[10] = target: Death-associated protein kinase 3 (Homo sapiens, UniProt O43293);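 note: measured as one member of a kinome-wide profiling panel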
[11] = target: Activin receptor type-1 (Homo sapiens, UniProt Q04771); experiment: Navigating the Kinome. Panel member name: ACVR1
[12] = target: Mitogen-activated protein kinase 8 (Homo sapiens, UniProt P45983);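 note: value comes from one member of a kinome-wide kinase profiling panel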
[13] = target: Serine/threonine-protein kinase PAK 4 (Homo sapiens, UniProt O96013);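 note: value obtained within a kinome profiling panel in which PAK4 was one of the panel members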
[14] = target: Tyrosine-protein kinase JAK3 (Homo sapiens, UniProt P52333)
[15] = target: Serine/threonine-protein kinase TAO1 (Homo sapiens, UniProt Q7L7X3)
[16] = target: Glycogen synthase kinase-3 alpha (Homo sapiens, UniProt P49840);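 note: GSK3A result taken from a broad kinome-wide kinase panel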
[17] = target: G protein-coupled receptor kinase 5 (Homo sapiens, UniProt P34947); experiment: Navigating the Kinome. Panel member name: GPRK5
[18] = target: Tyrosine-protein kinase Fyn (Homo sapiens, UniProt P06241)
[19] = target: Mitogen-activated protein kinase kinase kinase kinase 4 (Homo sapiens, UniProt O95819)
[20] = target: Macrophage-stimulating protein receptor (Homo sapiens, UniProt Q04912); experiment: Navigating the Kinome. Panel member name: MST1R
[21] = target: Calcium/calmodulin-dependent protein kinase type II subunit alpha (Homo sapiens, UniProt Q9UQM7); experiment: Navigating the Kinome. Panel member name: CAMK2A

Sequence of Serine/threonine-protein kinase pim-1 (P11309 whole entry): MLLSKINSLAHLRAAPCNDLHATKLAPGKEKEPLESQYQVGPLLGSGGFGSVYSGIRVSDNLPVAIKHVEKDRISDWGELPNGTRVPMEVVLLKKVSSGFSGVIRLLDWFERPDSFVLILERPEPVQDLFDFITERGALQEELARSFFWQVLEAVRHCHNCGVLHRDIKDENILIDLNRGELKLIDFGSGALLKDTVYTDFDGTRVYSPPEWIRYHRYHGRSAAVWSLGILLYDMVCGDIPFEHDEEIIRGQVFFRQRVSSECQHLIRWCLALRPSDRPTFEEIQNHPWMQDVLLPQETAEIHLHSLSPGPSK
Sequence of Cyclin-dependent kinase 7 (P50613 whole entry): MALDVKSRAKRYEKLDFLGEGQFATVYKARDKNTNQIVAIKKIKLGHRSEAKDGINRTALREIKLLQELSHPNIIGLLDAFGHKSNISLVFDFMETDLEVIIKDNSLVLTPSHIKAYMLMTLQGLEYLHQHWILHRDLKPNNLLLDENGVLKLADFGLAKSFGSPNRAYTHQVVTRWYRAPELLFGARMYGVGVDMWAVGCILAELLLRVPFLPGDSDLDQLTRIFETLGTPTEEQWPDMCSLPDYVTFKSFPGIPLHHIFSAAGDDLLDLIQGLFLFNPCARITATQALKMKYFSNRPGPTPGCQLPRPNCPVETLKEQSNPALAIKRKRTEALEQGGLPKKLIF
Sequence of Glycogen synthase kinase-3 beta (P49841 whole entry): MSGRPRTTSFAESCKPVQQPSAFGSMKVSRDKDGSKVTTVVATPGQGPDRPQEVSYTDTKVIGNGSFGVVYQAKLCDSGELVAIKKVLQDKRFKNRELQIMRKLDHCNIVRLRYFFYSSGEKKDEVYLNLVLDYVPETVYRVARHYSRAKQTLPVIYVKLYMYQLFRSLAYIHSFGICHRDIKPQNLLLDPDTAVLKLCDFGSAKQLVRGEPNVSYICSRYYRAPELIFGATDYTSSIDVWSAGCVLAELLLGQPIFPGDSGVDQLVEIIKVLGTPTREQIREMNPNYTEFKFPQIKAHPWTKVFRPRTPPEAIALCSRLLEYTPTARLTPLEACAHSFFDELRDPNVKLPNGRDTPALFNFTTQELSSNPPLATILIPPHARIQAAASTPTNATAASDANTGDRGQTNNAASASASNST
Sequence of Homeodomain-interacting protein kinase 2 (Q9H2X6 whole entry): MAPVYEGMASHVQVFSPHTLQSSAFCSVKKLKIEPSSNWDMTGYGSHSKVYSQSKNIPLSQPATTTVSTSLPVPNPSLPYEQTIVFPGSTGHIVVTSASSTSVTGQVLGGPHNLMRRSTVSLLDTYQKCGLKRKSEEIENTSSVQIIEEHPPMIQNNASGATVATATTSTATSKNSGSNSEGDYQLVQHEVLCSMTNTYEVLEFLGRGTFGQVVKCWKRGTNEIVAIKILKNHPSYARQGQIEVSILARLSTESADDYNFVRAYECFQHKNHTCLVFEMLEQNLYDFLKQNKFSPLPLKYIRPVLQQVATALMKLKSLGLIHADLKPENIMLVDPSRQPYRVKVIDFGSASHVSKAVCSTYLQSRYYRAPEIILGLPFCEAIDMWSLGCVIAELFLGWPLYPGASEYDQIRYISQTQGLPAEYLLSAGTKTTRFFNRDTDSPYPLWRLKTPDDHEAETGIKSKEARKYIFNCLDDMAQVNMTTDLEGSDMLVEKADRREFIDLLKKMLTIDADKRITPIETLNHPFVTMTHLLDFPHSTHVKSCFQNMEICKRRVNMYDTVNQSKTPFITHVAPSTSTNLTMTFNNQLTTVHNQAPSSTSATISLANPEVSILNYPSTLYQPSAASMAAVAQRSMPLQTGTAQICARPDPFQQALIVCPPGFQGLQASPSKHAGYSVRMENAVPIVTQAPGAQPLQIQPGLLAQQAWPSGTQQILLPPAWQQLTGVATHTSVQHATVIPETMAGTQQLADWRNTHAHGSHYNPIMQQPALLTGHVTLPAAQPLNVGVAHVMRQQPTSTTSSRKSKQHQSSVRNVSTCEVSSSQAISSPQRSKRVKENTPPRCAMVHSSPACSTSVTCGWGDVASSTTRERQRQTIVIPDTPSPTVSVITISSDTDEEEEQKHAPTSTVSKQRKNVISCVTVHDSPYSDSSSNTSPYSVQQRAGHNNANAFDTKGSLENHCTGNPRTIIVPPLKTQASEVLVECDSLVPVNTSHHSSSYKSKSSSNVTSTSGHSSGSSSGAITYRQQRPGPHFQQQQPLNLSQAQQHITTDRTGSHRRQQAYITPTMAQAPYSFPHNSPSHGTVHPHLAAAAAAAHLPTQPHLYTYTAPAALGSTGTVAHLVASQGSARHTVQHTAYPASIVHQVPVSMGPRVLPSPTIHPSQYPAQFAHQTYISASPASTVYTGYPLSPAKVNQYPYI
Sequence of G protein-coupled receptor kinase 5 (P34947 whole entry): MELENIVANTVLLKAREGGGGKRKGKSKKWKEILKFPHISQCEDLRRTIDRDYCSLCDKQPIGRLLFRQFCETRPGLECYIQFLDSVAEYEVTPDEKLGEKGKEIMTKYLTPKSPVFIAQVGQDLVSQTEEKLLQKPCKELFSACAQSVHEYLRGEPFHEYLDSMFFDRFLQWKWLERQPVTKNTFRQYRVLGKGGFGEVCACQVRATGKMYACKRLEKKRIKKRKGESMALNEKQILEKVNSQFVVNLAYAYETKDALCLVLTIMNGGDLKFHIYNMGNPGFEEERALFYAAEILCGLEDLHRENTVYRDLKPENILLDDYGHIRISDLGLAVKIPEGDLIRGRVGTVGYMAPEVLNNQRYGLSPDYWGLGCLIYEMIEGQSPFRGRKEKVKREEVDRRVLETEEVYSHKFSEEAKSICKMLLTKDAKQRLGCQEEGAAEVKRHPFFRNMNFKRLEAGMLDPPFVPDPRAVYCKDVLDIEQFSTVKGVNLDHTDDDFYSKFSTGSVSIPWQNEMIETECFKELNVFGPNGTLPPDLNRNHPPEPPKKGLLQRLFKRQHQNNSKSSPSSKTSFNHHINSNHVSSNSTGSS
Sequence of Activin receptor type-1 (Q04771 whole entry): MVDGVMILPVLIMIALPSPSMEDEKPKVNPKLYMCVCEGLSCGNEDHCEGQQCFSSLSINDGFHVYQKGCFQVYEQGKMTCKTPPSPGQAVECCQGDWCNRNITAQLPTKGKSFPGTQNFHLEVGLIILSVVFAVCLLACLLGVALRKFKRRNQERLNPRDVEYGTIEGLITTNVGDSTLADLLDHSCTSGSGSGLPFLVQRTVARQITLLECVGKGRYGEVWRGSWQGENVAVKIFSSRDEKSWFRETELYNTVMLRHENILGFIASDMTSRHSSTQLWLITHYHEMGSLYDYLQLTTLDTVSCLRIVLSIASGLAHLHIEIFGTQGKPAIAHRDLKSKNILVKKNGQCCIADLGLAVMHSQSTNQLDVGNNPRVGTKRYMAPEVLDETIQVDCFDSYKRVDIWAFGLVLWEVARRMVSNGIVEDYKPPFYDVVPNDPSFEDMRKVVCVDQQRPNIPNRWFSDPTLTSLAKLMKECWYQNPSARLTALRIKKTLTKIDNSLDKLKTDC
Sequence of Cyclin-dependent kinase 9 (P50750 whole entry): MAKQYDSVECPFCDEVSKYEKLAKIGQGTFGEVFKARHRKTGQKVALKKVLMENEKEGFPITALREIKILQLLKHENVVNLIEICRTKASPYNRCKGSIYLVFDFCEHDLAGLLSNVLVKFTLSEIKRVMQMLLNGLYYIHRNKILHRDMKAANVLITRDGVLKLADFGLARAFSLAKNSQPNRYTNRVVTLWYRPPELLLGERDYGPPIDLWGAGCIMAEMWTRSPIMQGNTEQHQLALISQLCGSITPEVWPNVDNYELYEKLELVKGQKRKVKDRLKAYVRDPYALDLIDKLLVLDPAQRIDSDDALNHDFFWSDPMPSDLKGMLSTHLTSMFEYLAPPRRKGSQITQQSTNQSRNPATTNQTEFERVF
Sequence of Mitogen-activated protein kinase kinase kinase kinase 4 (O95819 whole entry): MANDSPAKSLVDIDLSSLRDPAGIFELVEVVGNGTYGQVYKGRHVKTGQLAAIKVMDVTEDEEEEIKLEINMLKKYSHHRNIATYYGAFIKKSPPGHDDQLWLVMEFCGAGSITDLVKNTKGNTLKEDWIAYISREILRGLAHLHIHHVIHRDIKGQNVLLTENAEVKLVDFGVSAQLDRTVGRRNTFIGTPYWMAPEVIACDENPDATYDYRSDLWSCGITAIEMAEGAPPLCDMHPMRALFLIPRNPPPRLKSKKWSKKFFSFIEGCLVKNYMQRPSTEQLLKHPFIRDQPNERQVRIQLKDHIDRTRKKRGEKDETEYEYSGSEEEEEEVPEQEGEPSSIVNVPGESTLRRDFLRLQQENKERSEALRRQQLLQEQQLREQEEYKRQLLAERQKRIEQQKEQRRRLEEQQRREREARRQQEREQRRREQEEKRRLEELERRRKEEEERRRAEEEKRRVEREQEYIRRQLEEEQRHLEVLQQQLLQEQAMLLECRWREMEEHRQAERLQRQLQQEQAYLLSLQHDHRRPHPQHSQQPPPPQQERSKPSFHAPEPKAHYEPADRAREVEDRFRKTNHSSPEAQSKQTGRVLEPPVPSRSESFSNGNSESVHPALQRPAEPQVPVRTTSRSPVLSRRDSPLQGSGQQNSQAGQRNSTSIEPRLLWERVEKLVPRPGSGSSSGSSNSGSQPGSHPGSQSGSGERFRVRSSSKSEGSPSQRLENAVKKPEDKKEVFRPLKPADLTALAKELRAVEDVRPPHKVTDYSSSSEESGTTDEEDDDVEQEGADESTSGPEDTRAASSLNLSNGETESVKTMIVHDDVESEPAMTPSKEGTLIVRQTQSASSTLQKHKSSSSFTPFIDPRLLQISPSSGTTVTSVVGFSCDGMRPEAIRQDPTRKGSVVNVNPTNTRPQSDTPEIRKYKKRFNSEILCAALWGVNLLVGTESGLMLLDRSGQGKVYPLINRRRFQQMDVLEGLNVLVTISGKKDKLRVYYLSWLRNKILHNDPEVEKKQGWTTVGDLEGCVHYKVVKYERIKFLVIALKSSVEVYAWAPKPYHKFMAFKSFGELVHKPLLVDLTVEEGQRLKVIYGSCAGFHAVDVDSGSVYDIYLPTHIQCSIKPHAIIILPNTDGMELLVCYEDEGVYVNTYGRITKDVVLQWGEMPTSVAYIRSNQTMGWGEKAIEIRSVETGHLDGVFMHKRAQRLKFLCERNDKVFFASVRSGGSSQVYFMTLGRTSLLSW

## COCCNc1cc(-c2c[nH]c3ncccc23)cc(Cl)n1
[1]
  Ki: 0.794 µM (active)
[2]
  Ki: 2 nM (active)
[3]
  Ki: 63.1 nM (active)
[4]
  Ki: 3.98 µM (active)
[5]
  Ki: 158 nM (active)
[6]
  Ki: 126 nM (active)
[7]
  Ki: 200 nM (active)
[8]
  Ki: 158 nM (active)

## CN(C)c1ccc(NC(=O)CC2Nc3ccccc3NC2=O)cc1 (stereo not drawn)
[9]
  Ki: > 6.31 µM (inactive)
[10]
  Ki: > 5.01 µM (inactive)
[11]
  Ki: > 3.98 µM (inactive)
[12]
  Ki: > 5.01 µM (inactive)
[1]
  Ki: > 6.31 µM (inactive)
[13]
  Ki: > 5.01 µM (inactive)
[14]
  Ki: > 5.01 µM (inactive)
[15]
  Ki: > 6.31 µM (inactive)
[16]
  Ki: > 3.98 µM (inactive)
[17]
  Ki: > 3.98 µM (inactive)
[18]
  Ki: > 6.31 µM (inactive)
[5]
  Ki: > 3980 nM (inactive)
[19]
  Ki: > 5.01 µM (inactive)
[20]
  Ki: 398 nM (active)
[21]
  Ki: > 3.98 µM (inactive)
